Measured values published in ChEMBL document CHEMBL1201862, “PubChem BioAssay data set” (2004).
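Compound exposure: 48 hours, 5 concentrations, 96-well plates. GI50: concentration for 50% inhibition of growth.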 Activity calls are given as the source filed them. Cut-off read from the data, not from the text of the source: active = GI50 up to about 1.1 µM and inactive = higher. Square brackets hold non-standard residues; d marks the D form. Peptide text beside a SMILES is read from it. Phe(4-Cl) = N[CH](Cc1ccc(Cl)cc1)C(=O)O; 2Nal = N[CH](Cc1ccc2ccccc2c1)C(=O)O; 3Pal = N[CH](Cc1cccnc1)C(=O)O

Experiments:
Experiment in all cases: inhibition of tumour cell growth, NCI panel, 48 h
MOLT-4 = system: MOLT-4
786-0 = system: 786-0
A549 = system: A549
OVCAR-5 = system: OVCAR-5
MDA-MB-435 = system: MDA-MB-435
COLO 205 = system: COLO 205
RXF 393 = system: RXF 393
M14 = system: M14
HL-60 = system: HL-60
Hs-578T = system: Hs-578T
UACC-257 = system: UACC-257
EKVX = system: EKVX
SF-539 = system: SF-539
SK-OV-3 = system: SK-OV-3
SK-MEL-2 = system: SK-MEL-2
MDA-MB-231 = system: MDA-MB-231
NCI-H460 = system: NCI-H460
HCC 2998 = system: HCC 2998
Malme-3M = system: Malme-3M
DU-145 = system: DU-145

SMILES	GI50 (MOLT-4)	GI50 (786-0)	GI50 (A549)	GI50 (OVCAR-5)	GI50 (MDA-MB-435)	GI50 (COLO 205)	GI50 (RXF 393)	GI50 (M14)	GI50 (HL-60)	GI50 (Hs-578T)	GI50 (UACC-257)	GI50 (EKVX)	GI50 (SF-539)	GI50 (SK-OV-3)	GI50 (SK-MEL-2)	GI50 (MDA-MB-231)	GI50 (NCI-H460)	GI50 (HCC 2998)	GI50 (Malme-3M)	GI50 (DU-145)
O=NN(CCCl)C(=O)NC1CCC(=O)NC1=O (stereo not drawn)	49.2 µM (inactive)	61.7 µM (inactive)	182 µM (inactive)	804 µM (inactive)	191 µM (inactive)	267 µM (inactive)	232 µM (inactive)	356 µM (inactive)	66.7 µM (inactive)	348 µM (inactive)	335 µM (inactive)	415 µM (inactive)	50.8 µM (inactive)	526 µM (inactive)	225 µM (inactive)	286 µM (inactive)	83.8 µM (inactive)	713 µM (inactive)	221 µM (inactive)	337 µM (inactive)
COc1ccc2[nH]c3nnc(N)c-3nc2c1	5.73 µM (inactive)	8.3 µM (inactive)	4.14 µM (inactive)	7.8 µM (inactive)	10.2 µM (inactive)	3.62 µM (inactive)	2.49 µM (inactive)	12.3 µM (inactive)	2.13 µM (inactive)	3.81 µM (inactive)	17.1 µM (inactive)	4.26 µM (inactive)	3.74 µM (inactive)	20.4 µM (inactive)	5.28 µM (inactive)	18.9 µM (inactive)	7.46 µM (inactive)	14.1 µM (inactive)	21.8 µM (inactive)	7.55 µM (inactive)
[O-]c1c[n+](-c2ccccc2)no1	–	> 100 µM (inactive)	> 100 µM (inactive)	> 100 µM (inactive)	> 100 µM (inactive)	> 100 µM (inactive)	> 100 µM (inactive)	> 100 µM (inactive)	> 100 µM (inactive)	> 100 µM (inactive)	> 100 µM (inactive)	> 100 µM (inactive)	> 100 µM (inactive)	> 100 µM (inactive)	> 100 µM (inactive)	> 100 µM (inactive)	> 100 µM (inactive)	> 100 µM (inactive)	> 100 µM (inactive)	> 100 µM (inactive)
CN(C)CCSCCO	–	> 100 µM (inactive)	> 100 µM (inactive)	> 100 µM (inactive)	> 100 µM (inactive)	> 100 µM (inactive)	> 100 µM (inactive)	> 100 µM (inactive)	97.1 µM (inactive)	> 100 µM (inactive)	> 100 µM (inactive)	> 100 µM (inactive)	> 100 µM (inactive)	> 100 µM (inactive)	> 100 µM (inactive)	> 100 µM (inactive)	> 100 µM (inactive)	> 100 µM (inactive)	> 100 µM (inactive)	> 100 µM (inactive)
COc1cc(Cn2c3c(c4c(C(=O)NCCN(C)C)c(O)ccc42)C(=O)c2ccccc2C3=O)cc(OC)c1	–	0.501 µM (active)	1.88 µM (inactive)	1.67 µM (inactive)	1.75 µM (inactive)	1.81 µM (inactive)	1.68 µM (inactive)	1.73 µM (inactive)	2.04 µM (inactive)	1.79 µM (inactive)	1.97 µM (inactive)	1.82 µM (inactive)	1.79 µM (inactive)	1.94 µM (inactive)	1.8 µM (inactive)	2.1 µM (inactive)	1.79 µM (inactive)	1.13 µM (inactive)	1.54 µM (inactive)	1.67 µM (inactive)
COc1ccc(S(=O)(=O)Nc2ccc(-c3csc(N4C(=O)/C(=C/c5ccccc5[N+](=O)[O-])N=C4c4ccccc4)n3)cc2)cc1Cl	29.9 µM (inactive)	> 100 µM (inactive)	33 µM (inactive)	73.6 µM (inactive)	> 100 µM (inactive)	65.8 µM (inactive)	50.8 µM (inactive)	24.4 µM (inactive)	23.2 µM (inactive)	40.4 µM (inactive)	38.6 µM (inactive)	–	80.2 µM (inactive)	> 100 µM (inactive)	60.5 µM (inactive)	20.3 µM (inactive)	40.8 µM (inactive)	22.9 µM (inactive)	58.9 µM (inactive)	83 µM (inactive)
Cc1cc2nc3c(C#N)c(C)c(CCCl)c(Cl)n3c2cc1C	2.08 µM (inactive)	2 µM (inactive)	7.19 µM (inactive)	2.18 µM (inactive)	2.07 µM (inactive)	3.69 µM (inactive)	1.81 µM (inactive)	2.27 µM (inactive)	2.55 µM (inactive)	3.23 µM (inactive)	2.23 µM (inactive)	10.5 µM (inactive)	2.51 µM (inactive)	> 28.6 µM (inactive)	1.87 µM (inactive)	2 µM (inactive)	5.77 µM (inactive)	2.97 µM (inactive)	2.96 µM (inactive)	3.84 µM (inactive)
Cc1cc(N(CCC#N)CCC#N)ccc1C(=N/NC(=O)c1cc(Cl)ccc1O)/N=N/c1cccc(Cl)c1	4.81 µM (inactive)	11.5 µM (inactive)	17.1 µM (inactive)	41.6 µM (inactive)	27.3 µM (inactive)	5.96 µM (inactive)	10.7 µM (inactive)	15.5 µM (inactive)	4.48 µM (inactive)	39.1 µM (inactive)	15.2 µM (inactive)	14.4 µM (inactive)	30.1 µM (inactive)	20.6 µM (inactive)	10.8 µM (inactive)	15.7 µM (inactive)	6.27 µM (inactive)	12 µM (inactive)	14.2 µM (inactive)	18.1 µM (inactive)
Cc1ccc(C2SC(=N)Nc3c2c(C)nn3C(=O)c2ccncc2)cc1 (stereo not drawn)	> 10 µM (inactive)	> 10 µM (inactive)	> 10 µM (inactive)	> 10 µM (inactive)	> 10 µM (inactive)	> 10 µM (inactive)	> 10 µM (inactive)	> 10 µM (inactive)	> 10 µM (inactive)	> 10 µM (inactive)	> 10 µM (inactive)	–	> 10 µM (inactive)	> 10 µM (inactive)	> 10 µM (inactive)	> 10 µM (inactive)	> 10 µM (inactive)	> 10 µM (inactive)	> 10 µM (inactive)	> 10 µM (inactive)
CC(C(=O)O)C1Nc2ccccc2NC1=O (stereo not drawn)	25.2 µM (inactive)	> 100 µM (inactive)	> 100 µM (inactive)	> 100 µM (inactive)	> 100 µM (inactive)	> 100 µM (inactive)	> 100 µM (inactive)	> 100 µM (inactive)	23.3 µM (inactive)	> 100 µM (inactive)	> 100 µM (inactive)	> 100 µM (inactive)	> 100 µM (inactive)	> 100 µM (inactive)	> 100 µM (inactive)	> 100 µM (inactive)	> 100 µM (inactive)	> 100 µM (inactive)	> 100 µM (inactive)	> 100 µM (inactive)
COc1cc(CN2CCCCC2)cc2cc(C(=O)O)c(=O)oc12	> 100 µM (inactive)	> 100 µM (inactive)	> 100 µM (inactive)	> 100 µM (inactive)	> 100 µM (inactive)	> 100 µM (inactive)	> 100 µM (inactive)	> 100 µM (inactive)	> 100 µM (inactive)	> 100 µM (inactive)	> 100 µM (inactive)	> 100 µM (inactive)	> 100 µM (inactive)	> 100 µM (inactive)	> 100 µM (inactive)	> 100 µM (inactive)	> 100 µM (inactive)	> 100 µM (inactive)	> 100 µM (inactive)	> 100 µM (inactive)
Nc1ncn(C2OC(COP(=O)(O)O)C(O)C2O)c(=O)n1 (stereo not drawn)	2.39 µM (inactive)	> 86.3 µM (inactive)	45.9 µM (inactive)	> 100 µM (inactive)	> 53.2 µM (inactive)	> 100 µM (inactive)	> 100 µM (inactive)	> 100 µM (inactive)	> 64.4 µM (inactive)	> 100 µM (inactive)	> 100 µM (inactive)	> 58.2 µM (inactive)	> 100 µM (inactive)	> 100 µM (inactive)	> 100 µM (inactive)	> 100 µM (inactive)	52.8 µM (inactive)	> 100 µM (inactive)	> 81.8 µM (inactive)	> 100 µM (inactive)
CC(=O)NC(Cc1ccc2ccccc2c1)C(=O)NC(Cc1ccc(Cl)cc1)C(=O)NC(Cc1cccnc1)C(=O)NC(CO)C(=O)NC(Cc1ccc(O)cc1)C(=O)NC(CCCN=C(N)N)C(=O)NC(CC(C)C)C(=O)NC(CCCN=C(N)N)C(=O)N1CCCC1C(=O)NC(C)C(N)=O (stereo not drawn) (Ac-[2Nal][Phe(4-Cl)][3Pal]SYRLRPA-NH2; configuration not given here)	> 100 µM (inactive)	69.7 µM (inactive)	> 100 µM (inactive)	> 100 µM (inactive)	82.8 µM (inactive)	> 100 µM (inactive)	> 100 µM (inactive)	> 100 µM (inactive)	> 100 µM (inactive)	50.2 µM (inactive)	> 100 µM (inactive)	> 100 µM (inactive)	> 100 µM (inactive)	–	> 100 µM (inactive)	> 100 µM (inactive)	95.5 µM (inactive)	> 100 µM (inactive)	28.8 µM (inactive)	> 100 µM (inactive)
CC1(C)CCC[C@]2(C)[C@@H](C=O)C(C=O)=CC[C@@H]12 [POLYGODIAL]	9.33 µM (inactive)	37 µM (inactive)	37.5 µM (inactive)	16.4 µM (inactive)	36.6 µM (inactive)	18.2 µM (inactive)	17.1 µM (inactive)	17.5 µM (inactive)	18.4 µM (inactive)	27.9 µM (inactive)	17.1 µM (inactive)	24.8 µM (inactive)	19.3 µM (inactive)	30.8 µM (inactive)	18.1 µM (inactive)	10.6 µM (inactive)	–	18.4 µM (inactive)	15.2 µM (inactive)	18.5 µM (inactive)
